The text below walks through data of the OligoGym collection.

HELM strings list units from the 5' end as sugar, base in round brackets, then linkage (d deoxyribose, r ribose, m 2'-O-methyl, p phosphodiester). Strings are as the collection lists them; they lack the last nucleoside at the 3' end of the tested compound. [moe] = 2'-O-(2-methoxyethyl) (MOE); [sp] = phosphorothioate linkage; [m5C] = 5-methylcytosine

In this data set the target is LRRK2. Kind of data set: mouse, dose not given. Conditions: ASO.
In the case of “RNA1{[moe](A)[sp].[moe](T)p.[moe](G)p.[moe]([m5C])p.[moe](T)[sp].d(T)[sp].d(T)[sp].d([m5C])[sp].d(A)[sp].d(T)[sp].d(A)[sp].d(G)[sp].d([m5C])[sp].d(T)[sp].d(T)[sp].[moe]([m5C])p.[moe]([m5C])p.[moe](A)[sp].[moe]([m5C])}$$$$ (last 3' nucleoside missing)”, the 3 h FOB score stood at 0 score 0-7.

In turn, “RNA1{[moe]([m5C])[sp].[moe](T)p.[moe](G)[sp].[moe](T)[sp].[moe]([m5C])[sp].d(A)[sp].d([m5C])[sp].d([m5C])[sp].d(T)[sp].d(T)[sp].d(T)[sp].d([m5C])[sp].d([m5C])[sp].d([m5C])[sp].d(A)[sp].[moe](A)[sp].[moe](T)p.[moe](G)[sp].[moe]([m5C])}$$$$ (last 3' nucleoside missing)” returned a 3 h FOB score of 3 score 0-7. As for “RNA1{[moe](T)[sp].[moe]([m5C])p.[moe](T)[sp].[moe](T)[sp].[moe]([m5C])[sp].d(A)[sp].d(G)[sp].d(T)[sp].d(T)[sp].d([m5C])[sp].d([m5C])[sp].d(T)[sp].d(T)[sp].d([m5C])[sp].d(A)[sp].[moe](G)[sp].[moe](T)p.[moe]([m5C])[sp].[moe](T)}$$$$ (last 3' nucleoside missing)”, the 3 h FOB score came out at 3 score 0-7.

On to “RNA1{[moe](G)[sp].[moe](G)p.[moe](A)p.[moe](G)p.[moe](A)[sp].d(T)[sp].d(T)[sp].d(A)[sp].d(T)[sp].d(T)[sp].d(T)[sp].d(A)[sp].d(G)[sp].d(T)[sp].d(G)[sp].[moe]([m5C])p.[moe]([m5C])p.[moe]([m5C])[sp].[moe](A)}$$$$ (last 3' nucleoside missing)”, for which the 3 h FOB score is 6 score 0-7. Substance “RNA1{[moe](G)[sp].[moe](T)p.[moe](T)[sp].[moe](T)[sp].[moe]([m5C])[sp].d(A)[sp].d(T)[sp].d(T)[sp].d([m5C])[sp].d(G)[sp].d(G)[sp].d(T)[sp].d(T)[sp].d(A)[sp].d(T)[sp].[moe](A)[sp].[moe](A)p.[moe](G)[sp].[moe](G)}$$$$ (last 3' nucleoside missing)” registered a 3 h FOB score of 7 score 0-7. “RNA1{[moe](G)[sp].[moe]([m5C])p.[moe](T)p.[moe](G)p.[moe]([m5C])[sp].d(T)[sp].d([m5C])[sp].d(A)[sp].d(T)[sp].d(A)[sp].d(T)[sp].d([m5C])[sp].d(T)[sp].d(A)[sp].d(A)[sp].[moe](A)p.[moe](G)p.[moe](A)[sp].[moe]([m5C])}$$$$ (last 3' nucleoside missing)” displayed a 3 h FOB score of 0 score 0-7.

Substance “RNA1{[moe](T)[sp].[moe](T)p.[moe]([m5C])[sp].[moe](A)[sp].[moe](T)[sp].d(A)[sp].d(G)[sp].d([m5C])[sp].d(T)[sp].d(T)[sp].d([m5C])[sp].d([m5C])[sp].d(A)[sp].d([m5C])[sp].d([m5C])[sp].[moe](A)[sp].[moe]([m5C])p.[moe](A)[sp].[moe](A)}$$$$ (last 3' nucleoside missing)” registered a 3 h FOB score of 5 score 0-7. For “RNA1{[moe]([m5C])[sp].[moe](A)p.[moe](T)[sp].[moe](T)[sp].[moe]([m5C])[sp].d(G)[sp].d(G)[sp].d(T)[sp].d(T)[sp].d(A)[sp].d(T)[sp].d(A)[sp].d(A)[sp].d(G)[sp].d(G)[sp].[moe]([m5C])[sp].[moe](A)p.[moe]([m5C])[sp].[moe](A)}$$$$ (last 3' nucleoside missing)” the value was 7 score 0-7. For “RNA1{[moe]([m5C])[sp].[moe](T)p.[moe](G)[sp].[moe](T)[sp].[moe](T)[sp].d(A)[sp].d(T)[sp].d(T)[sp].d([m5C])[sp].d(T)[sp].d(G)[sp].d(A)[sp].d(T)[sp].d([m5C])[sp].d(A)[sp].[moe]([m5C])[sp].[moe](A)p.[moe]([m5C])[sp].[moe](G)}$$$$ (last 3' nucleoside missing)” the value was 5 score 0-7.

Substance “RNA1{[moe](G)[sp].[moe](T)p.[moe]([m5C])p.[moe](A)p.[moe](A)[sp].d(A)[sp].d([m5C])[sp].d(T)[sp].d([m5C])[sp].d(T)[sp].d(T)[sp].d([m5C])[sp].d(A)[sp].d(G)[sp].d(A)[sp].[moe](G)p.[moe](T)p.[moe](T)[sp].[moe](T)}$$$$ (last 3' nucleoside missing)” displayed a 3 h FOB score of 0 score 0-7. With “RNA1{[moe](A)[sp].[moe](T)p.[moe](G)[sp].[moe](A)[sp].[moe](G)[sp].d(T)[sp].d(G)[sp].d([m5C])[sp].d(A)[sp].d(T)[sp].d(G)[sp].d(G)[sp].d([m5C])[sp].d(A)[sp].d(T)[sp].[moe]([m5C])[sp].[moe](A)p.[moe](A)[sp].[moe](A)}$$$$ (last 3' nucleoside missing)”, the 3 h FOB score amounted to 6 score 0-7. The substance “RNA1{[moe](G)[sp].[moe]([m5C])p.[moe](A)p.[moe]([m5C])p.[moe](A)[sp].d([m5C])[sp].d(A)[sp].d(G)[sp].d(T)[sp].d(G)[sp].d(T)[sp].d(A)[sp].d(G)[sp].d(T)[sp].d([m5C])[sp].[moe](A)p.[moe](T)p.[moe](A)[sp].[moe]([m5C])}$$$$ (last 3' nucleoside missing)” had a 3 h FOB score of 2 score 0-7. Regarding “RNA1{[moe](A)[sp].[moe](G)p.[moe](T)[sp].[moe](G)[sp].[moe]([m5C])[sp].d(A)[sp].d(T)[sp].d(G)[sp].d(G)[sp].d([m5C])[sp].d(A)[sp].d(T)[sp].d([m5C])[sp].d(A)[sp].d(A)[sp].[moe](A)[sp].[moe](A)p.[moe](A)[sp].[moe](T)}$$$$ (last 3' nucleoside missing)”, the 3 h FOB score is 2 score 0-7. Consider “RNA1{[moe](T)[sp].[moe](T)p.[moe](G)[sp].[moe]([m5C])[sp].[moe](T)[sp].d(G)[sp].d([m5C])[sp].d(T)[sp].d([m5C])[sp].d(A)[sp].d(T)[sp].d(A)[sp].d(T)[sp].d([m5C])[sp].d(T)[sp].[moe](A)[sp].[moe](A)p.[moe](A)[sp].[moe](G)}$$$$ (last 3' nucleoside missing)”, for which the 3 h FOB score was 3 score 0-7.

In turn, “RNA1{[moe](A)[sp].[moe](T)p.[moe](A)[sp].[moe](A)[sp].[moe](G)[sp].d(T)[sp].d(T)[sp].d(T)[sp].d([m5C])[sp].d(A)[sp].d(T)[sp].d(T)[sp].d([m5C])[sp].d(G)[sp].d(G)[sp].[moe](T)[sp].[moe](T)p.[moe](A)[sp].[moe](T)}$$$$ (last 3' nucleoside missing)” came in with a 3 h FOB score of 4 score 0-7.

“RNA1{[moe](A)[sp].[moe](A)p.[moe]([m5C])[sp].[moe](G)[sp].[moe]([m5C])[sp].d(A)[sp].d([m5C])[sp].d(T)[sp].d(T)[sp].d(A)[sp].d(A)[sp].d([m5C])[sp].d(A)[sp].d(A)[sp].d(T)[sp].[moe](A)[sp].[moe](T)p.[moe]([m5C])[sp].[moe](A)}$$$$ (last 3' nucleoside missing)” returned a 3 h FOB score of 0 score 0-7. Regarding “RNA1{[moe](T)[sp].[moe](T)p.[moe](A)[sp].[moe](A)[sp].[moe](A)[sp].d(A)[sp].d(T)[sp].d([m5C])[sp].d(T)[sp].d(T)[sp].d([m5C])[sp].d(A)[sp].d(G)[sp].d(T)[sp].d(T)[sp].[moe]([m5C])[sp].[moe]([m5C])p.[moe](T)[sp].[moe](T)}$$$$ (last 3' nucleoside missing)”, the 3 h FOB score is 0 score 0-7.

“RNA1{[moe](T)[sp].[moe](T)p.[moe](T)[sp].[moe]([m5C])[sp].[moe](A)[sp].d(T)[sp].d(T)[sp].d([m5C])[sp].d(G)[sp].d(G)[sp].d(T)[sp].d(T)[sp].d(A)[sp].d(T)[sp].d(A)[sp].[moe](A)[sp].[moe](G)p.[moe](G)[sp].[moe]([m5C])}$$$$ (last 3' nucleoside missing)” came in with a 3 h FOB score of 7 score 0-7.

The substance “RNA1{[moe](A)[sp].[moe](G)p.[moe]([m5C])p.[moe](A)p.[moe](A)[sp].d(T)[sp].d([m5C])[sp].d(A)[sp].d(T)[sp].d(T)[sp].d(G)[sp].d(G)[sp].d(T)[sp].d(A)[sp].d(G)[sp].[moe]([m5C])p.[moe](A)p.[moe](T)[sp].[moe](A)}$$$$ (last 3' nucleoside missing)” displayed a 3 h FOB score of 5 score 0-7. In the case of “RNA1{[moe]([m5C])[sp].[moe]([m5C])p.[moe](T)[sp].[moe](G)[sp].[moe](A)[sp].d([m5C])[sp].d(A)[sp].d(T)[sp].d(T)[sp].d(G)[sp].d([m5C])[sp].d([m5C])[sp].d(A)[sp].d([m5C])[sp].d(T)[sp].[moe]([m5C])[sp].[moe](A)p.[moe](T)[sp].[moe](G)}$$$$ (last 3' nucleoside missing)”, the 3 h FOB score amounted to 4 score 0-7. Substance “RNA1{[moe](A)[sp].[moe](A)p.[moe](T)p.[moe](G)p.[moe]([m5C])[sp].d(T)[sp].d(T)[sp].d(T)[sp].d([m5C])[sp].d(A)[sp].d(T)[sp].d(A)[sp].d(G)[sp].d([m5C])[sp].d(T)[sp].[moe](T)p.[moe]([m5C])p.[moe]([m5C])[sp].[moe](A)}$$$$ (last 3' nucleoside missing)” gave a 3 h FOB score of 1 score 0-7. “RNA1{[moe]([m5C])[sp].[moe](A)p.[moe](A)[sp].[moe](G)[sp].[moe](T)[sp].d([m5C])[sp].d([m5C])[sp].d(A)[sp].d(A)[sp].d(A)[sp].d(T)[sp].d(G)[sp].d(T)[sp].d(G)[sp].d(T)[sp].[moe]([m5C])[sp].[moe](A)p.[moe](A)[sp].[moe](A)}$$$$ (last 3' nucleoside missing)” had a 3 h FOB score of 7 score 0-7. Regarding “RNA1{[moe](G)[sp].[moe](T)p.[moe](G)p.[moe]([m5C])p.[moe](A)[sp].d(A)[sp].d(G)[sp].d(T)[sp].d([m5C])[sp].d([m5C])[sp].d(A)[sp].d(A)[sp].d(A)[sp].d(T)[sp].d(G)[sp].[moe](T)p.[moe](G)p.[moe](T)[sp].[moe]([m5C])}$$$$ (last 3' nucleoside missing)”, the 3 h FOB score was determined as 2 score 0-7. Regarding “RNA1{[moe]([m5C])[sp].[moe](T)p.[moe](T)p.[moe]([m5C])p.[moe](A)[sp].d(G)[sp].d(T)[sp].d(T)[sp].d([m5C])[sp].d([m5C])[sp].d(T)[sp].d(T)[sp].d([m5C])[sp].d(A)[sp].d(G)[sp].[moe](T)p.[moe]([m5C])p.[moe](T)[sp].[moe]([m5C])}$$$$ (last 3' nucleoside missing)”, the 3 h FOB score is 4 score 0-7.
